The text below walks through data of ChEMBL document CHEMBL5726657, “Substituted pyrrolo[3,4-e]indolizines, imidazo[1,2-a]pyrrolo[3,4-e]pyridines, pyrrolo[3,4-e][1,2,4]triazolo[1,5-a]pyridines and pyrrolo[3,4-e][1,2,4]triazolo[4,3-a]pyridines as positive allosteric modulators of muscarinic acetylcholine receptor M1” (2019).

This assay deals with T1, Muscarinic acetylcholine receptor M1 (Homo sapiens, UniProt P11229).
T1 sequence (P11229 whole entry): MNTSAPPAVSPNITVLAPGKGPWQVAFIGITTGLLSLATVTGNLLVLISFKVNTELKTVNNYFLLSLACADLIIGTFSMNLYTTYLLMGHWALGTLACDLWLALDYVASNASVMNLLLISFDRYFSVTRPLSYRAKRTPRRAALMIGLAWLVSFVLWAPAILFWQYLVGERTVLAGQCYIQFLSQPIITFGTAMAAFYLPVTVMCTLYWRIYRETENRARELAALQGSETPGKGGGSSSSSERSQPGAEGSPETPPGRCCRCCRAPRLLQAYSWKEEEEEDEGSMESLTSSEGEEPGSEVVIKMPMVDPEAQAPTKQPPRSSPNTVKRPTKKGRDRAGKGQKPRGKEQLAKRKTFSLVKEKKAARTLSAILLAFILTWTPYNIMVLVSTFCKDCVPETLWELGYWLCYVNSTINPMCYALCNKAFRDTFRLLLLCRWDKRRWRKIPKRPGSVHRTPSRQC
Kind of assay: Cell-Based Functional Assay of Muscarinic Acetylcholine Receptor: For high throughput measurement of agonist-evoked increases in intracellular calcium, CHO-K1 cells stably expressing muscarinic receptors were plated in growth medium lacking G418 and hygromycin at 15,000 cells/20 μL/well in Greiner 384-well black-walled, tissue culture (TC)-treated, clear-bottom plates (VWR). Cells were incubated overnight at 37° C. and 5% CO2. The next day, cells were washed using an ELX 405 (BioTek) with four washes (80 μL) of assay buffer then aspirated to 20 μL. Next, 20 μL of 16 μM Fluo-4/acetoxymethyl ester (Invitrogen, Carlsbad, Calif.) prepared as a 2.3 mM stock in DMSO and mixed in a 1:1 ratio with 10% (w/v) Pluronic F-127 and diluted in assay buffer was added to the wells and the cell plates were incubated for 50 min at 37° C. and 5% CO2. Dye was removed by washing with the ELX 405 (four 80 μL washes of assay buffer) then aspirated to 20 μL. Compound master plates were formatted in an 11 point CRC format (1:3 dilutions) in 100% DMSO with a starting concentration of 10 mM using the BRAVO liquid handler (Agilent). […].

The structures appear in SMILES notation. pEC50: −log10 of the molar value.

Take `Cn1cc2cc(-c3cc(F)c(CN4Cc5ccc6nccn6c5C4=O)c(F)c3)ccc2n1`: the pEC50 – broadly, the EC50 on a negative log10 scale, so that one unit is a factor of ten – is 5.00.
